Test results taken from ChEMBL document CHEMBL3525989 (Drug Metab Dispos, 2011).

Legend:
CYP3A4 [1] = biological target: T1, CYP3A4 (Homo sapiens, UniProt P08684); experiment: Inhibition of recombinant CYP3A4 (unknown origin) expressed in baculosomes assessed as enzyme remaining activity at 10 uM measured after 1.5 min in presence of 1 mM NADPH; assay type: ADME; details: read-out: Activity
Cytochrome P450 3A4 [2] = biological target: T2, Cytochrome P450 3A4 (Homo sapiens, UniProt P08684); experiment: Inhibition of recombinant CYP3A4 (unknown origin) expressed in baculosomes assessed as decrease in CYP3A4-CO binding at 10 uM preincubated for 5 mins measured after overnight washout with 100 mM potassium phosphate buffer by LC-tandem mass spectrometry analysis in presence of 1 mM NADPH; assay type: ADME; details: recombinant enzyme
Cytochrome P450 3A4 [3] = biological target: T2, Cytochrome P450 3A4; experiment: Inhibition of recombinant CYP3A4 (unknown origin) expressed in baculosomes assessed as decrease in CYP3A4-CO binding at 10 uM preincubated for 5 mins measured after […] by LC-tandem mass spectrometry analysis in presence of 1 mM NADPH; assay type: ADME; details: recombinant enzyme
Cytochrome P450 3A4 [4] = biological target: T2, Cytochrome P450 3A4; experiment: Binding affinity to CYP3A4 (unknown origin); assay type: ADME; details: read-out: Ks
CYP3A4 [5] = biological target: T1, CYP3A4; experiment: (§1) Inhibition of recombinant CYP3A4 (unknown origin) expressed in baculosomes in presence of 1 mM NADPH; assay type: ADME; details: human, recombinant CYP3A4 expressed in baculosomes
Cytochrome P450 3A4 [6] = biological target: T2, Cytochrome P450 3A4; experiment: as §1; assay type: ADME
CYP3A4 [7] = biological target: T1, CYP3A4; experiment: Residual activity of recombinant CYP3A4 (unknown origin) expressed in baculosomes at 10 uM measured after 1.5 min in presence of 1 mM NADPH
Cytochrome P450 3A4 [8] = biological target: T2, Cytochrome P450 3A4; experiment: Inhibition of recombinant CYP3A4 (unknown origin) expressed in baculosomes in presence of 1 mM NADPH and 1 mM nucleophilic trapping agent methyl hydroxylamine; assay type: ADME; details: recombinant enzyme
Cytochrome P450 3A4 [9] = biological target: T2, Cytochrome P450 3A4; experiment: Inhibition of recombinant CYP3A4 (unknown origin) expressed in baculosomes in presence of 1 mM NADPH and 1 mM nucleophilic trapping agent catalase; assay type: ADME; details: recombinant enzyme
Cytochrome P450 3A4 [10] = biological target: T2, Cytochrome P450 3A4; experiment: Inhibition of recombinant CYP3A4 (unknown origin) expressed in baculosomes in presence of 1 mM NADPH and 1 mM nucleophilic trapping agent semicarbazide; assay type: ADME; details: recombinant enzyme
Cytochrome P450 3A4 [11] = biological target: T2, Cytochrome P450 3A4; experiment: Inhibition of recombinant CYP3A4 (unknown origin) expressed in baculosomes in presence of 1 mM NADPH and 1 mM nucleophilic trapping agent potassium cyanide; assay type: ADME; details: recombinant enzyme
Cytochrome P450 3A4 [12] = biological target: T2, Cytochrome P450 3A4; experiment: Inhibition of recombinant CYP3A4 (unknown origin) expressed in baculosomes in presence of 1 mM NADPH and 1 mM nucleophilic trapping agent N-acetyl lysine; assay type: ADME; details: recombinant enzyme
Cytochrome P450 3A4 [13] = biological target: T2, Cytochrome P450 3A4; experiment: Inhibition of recombinant CYP3A4 (unknown origin) expressed in baculosomes in presence of 1 mM NADPH and 1 mM nucleophilic trapping agent N-acetyl cysteine; assay type: ADME; details: recombinant enzyme
Cytochrome P450 3A4 [14] = biological target: T2, Cytochrome P450 3A4; experiment: Inhibition of recombinant CYP3A4 (unknown origin) expressed in baculosomes in presence of 1 mM NADPH and 1 mM nucleophilic trapping agent glutathione; assay type: ADME; details: recombinant enzyme
Cytochrome P450 3A4 [15] = biological target: T2, Cytochrome P450 3A4; experiment: Inhibition of recombinant CYP3A4 (unknown origin) expressed in baculosomes in presence of 1 mM NADPH and 1 mM nucleophilic trapping agent dimethyl pyrroline N-oxide; assay type: ADME; details: recombinant enzyme
Cytochrome P450 3A4 [16] = biological target: T2, Cytochrome P450 3A4; experiment: Inhibition of recombinant CYP3A4 (unknown origin) expressed in baculosomes in presence of 1 mM NADPH and 1 mM nucleophilic trapping agent superoxide dismutase; assay type: ADME; details: recombinant enzyme

T2 sequence (P08684 whole entry): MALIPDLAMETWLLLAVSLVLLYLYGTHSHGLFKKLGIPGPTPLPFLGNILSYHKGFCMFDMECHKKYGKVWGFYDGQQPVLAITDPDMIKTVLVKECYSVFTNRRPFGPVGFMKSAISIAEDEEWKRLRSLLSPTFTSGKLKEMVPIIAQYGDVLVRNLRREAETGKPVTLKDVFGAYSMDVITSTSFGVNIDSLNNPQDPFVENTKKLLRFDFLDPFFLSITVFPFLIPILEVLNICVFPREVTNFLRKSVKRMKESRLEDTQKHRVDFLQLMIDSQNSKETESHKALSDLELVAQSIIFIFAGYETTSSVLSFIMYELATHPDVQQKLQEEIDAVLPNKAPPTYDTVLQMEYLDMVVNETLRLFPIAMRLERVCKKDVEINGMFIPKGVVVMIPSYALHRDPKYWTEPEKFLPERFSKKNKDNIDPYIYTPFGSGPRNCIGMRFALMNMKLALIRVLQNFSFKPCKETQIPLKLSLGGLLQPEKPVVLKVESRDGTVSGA
T1 sequence (P08684 whole entry): as above

activity at 0.025 h, 10 µM (CYP3A4 [1])	Kd (Cytochrome P450 3A4 [4])	kinact (CYP3A4 [5])	Ki (Cytochrome P450 3A4 [6])	SMILES	inhibition (INH) (Cytochrome P450 3A4 [2])	inhibition (INH) (Cytochrome P450 3A4 [3])	residual activity at 0.025 h, 10 µM (CYP3A4 [7])	inhibition (INH) (Cytochrome P450 3A4 [8])	inhibition (INH) (Cytochrome P450 3A4 [9])	inhibition (INH) (Cytochrome P450 3A4 [10])	inhibition (INH) (Cytochrome P450 3A4 [11])	inhibition (INH) (Cytochrome P450 3A4 [12])	inhibition (INH) (Cytochrome P450 3A4 [13])	inhibition (INH) (Cytochrome P450 3A4 [14])	inhibition (INH) (Cytochrome P450 3A4 [15])	inhibition (INH) (Cytochrome P450 3A4 [16])
60%	1390 nM	0.00133 s⁻¹	820 nM	CC(C)[C@H]1c2ccc(F)cc2CC[C@]1(O)CCN(C)CCCc1nc2ccccc2[nH]1	Active	Active	–	–	–	–	–	–	–	–	–	–
–	–	–	–	COCC(=O)O[C@]1(CCN(C)CCCc2nc3ccccc3[nH]2)CCc2cc(F)ccc2[C@@H]1C(C)C [MIBEFRADIL]	Active	Active	< 20%	Active	Active	Active	Active	Active	Active	Active	Active	Active
